Each structure is given as a SMILES string.

In this experiment the target is T1, hSCN3A sodium channels (Homo sapiens, UniProt Q9NY46).
T1 construct: expressed in transfected cells
T1 sequence (Q9NY46 whole entry): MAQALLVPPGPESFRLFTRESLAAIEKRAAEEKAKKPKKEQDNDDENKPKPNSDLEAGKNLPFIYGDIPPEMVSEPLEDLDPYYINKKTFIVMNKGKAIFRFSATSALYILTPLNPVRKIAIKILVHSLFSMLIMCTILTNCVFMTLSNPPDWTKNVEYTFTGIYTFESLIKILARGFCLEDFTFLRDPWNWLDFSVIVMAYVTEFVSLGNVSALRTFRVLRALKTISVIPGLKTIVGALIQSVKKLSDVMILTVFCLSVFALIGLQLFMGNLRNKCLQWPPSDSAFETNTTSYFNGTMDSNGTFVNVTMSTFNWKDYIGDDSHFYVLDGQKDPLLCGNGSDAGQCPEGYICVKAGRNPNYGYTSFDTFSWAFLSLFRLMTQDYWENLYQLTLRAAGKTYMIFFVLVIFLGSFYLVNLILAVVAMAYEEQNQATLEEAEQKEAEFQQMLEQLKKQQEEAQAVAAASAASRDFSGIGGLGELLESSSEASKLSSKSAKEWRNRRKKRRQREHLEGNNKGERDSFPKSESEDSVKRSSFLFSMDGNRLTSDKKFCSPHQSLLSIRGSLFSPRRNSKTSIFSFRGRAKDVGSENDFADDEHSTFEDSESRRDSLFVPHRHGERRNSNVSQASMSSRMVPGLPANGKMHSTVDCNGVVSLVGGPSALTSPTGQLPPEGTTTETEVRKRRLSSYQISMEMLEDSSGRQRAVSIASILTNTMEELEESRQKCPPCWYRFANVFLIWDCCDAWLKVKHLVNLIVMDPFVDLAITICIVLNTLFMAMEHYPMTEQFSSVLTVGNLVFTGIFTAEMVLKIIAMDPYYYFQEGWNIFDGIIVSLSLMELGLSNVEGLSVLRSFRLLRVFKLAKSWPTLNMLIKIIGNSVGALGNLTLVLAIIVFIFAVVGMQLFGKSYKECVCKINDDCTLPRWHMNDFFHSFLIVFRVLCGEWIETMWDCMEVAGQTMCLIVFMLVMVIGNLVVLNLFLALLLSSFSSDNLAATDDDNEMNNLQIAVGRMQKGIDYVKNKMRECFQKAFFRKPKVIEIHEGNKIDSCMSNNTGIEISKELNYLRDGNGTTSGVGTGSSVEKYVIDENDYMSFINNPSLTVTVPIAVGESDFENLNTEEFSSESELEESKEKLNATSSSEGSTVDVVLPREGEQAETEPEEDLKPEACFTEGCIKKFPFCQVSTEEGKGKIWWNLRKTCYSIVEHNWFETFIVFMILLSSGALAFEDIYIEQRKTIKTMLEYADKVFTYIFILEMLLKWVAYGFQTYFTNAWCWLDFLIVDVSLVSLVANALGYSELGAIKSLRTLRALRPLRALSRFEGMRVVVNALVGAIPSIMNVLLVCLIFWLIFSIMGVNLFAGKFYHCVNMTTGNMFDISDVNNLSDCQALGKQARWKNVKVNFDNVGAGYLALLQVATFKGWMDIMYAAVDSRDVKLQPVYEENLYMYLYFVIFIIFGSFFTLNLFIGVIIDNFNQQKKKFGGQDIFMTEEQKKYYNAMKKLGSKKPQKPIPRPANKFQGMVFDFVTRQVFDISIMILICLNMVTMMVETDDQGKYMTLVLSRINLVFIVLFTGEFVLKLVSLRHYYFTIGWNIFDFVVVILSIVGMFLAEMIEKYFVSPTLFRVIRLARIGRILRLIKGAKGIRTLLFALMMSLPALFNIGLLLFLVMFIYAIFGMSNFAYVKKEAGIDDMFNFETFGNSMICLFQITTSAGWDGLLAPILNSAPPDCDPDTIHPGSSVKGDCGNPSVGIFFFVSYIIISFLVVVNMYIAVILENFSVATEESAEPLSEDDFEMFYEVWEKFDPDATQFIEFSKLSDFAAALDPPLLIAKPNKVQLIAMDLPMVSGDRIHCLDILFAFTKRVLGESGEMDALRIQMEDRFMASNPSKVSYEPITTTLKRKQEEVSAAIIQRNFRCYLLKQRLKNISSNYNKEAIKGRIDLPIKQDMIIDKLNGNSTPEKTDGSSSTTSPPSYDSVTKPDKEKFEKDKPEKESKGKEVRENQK
The experiment in a line: hSCN3A electrophysiology, whole-cell patch-clamp or PatchXpress 7000, estimated IC-50 (Table B). Type of experiment: cell-based. As to conditions: estimated IC-50; hSCN3A cells, whole-cell patch-clamp or PatchXpress 7000; read-out: SCN3A EIC-50. The procedure, abridged:
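A 20 msec test pulse to 0 mV followed an 8 sec conditioning prepulse at each cell's measured V1/2. Room-temperature (22-24° C) recordings on HEK cells stably expressing the channel, conventional or PatchXpress.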
For `O=C(c1ccc(S(=O)(=O)Nc2nccs2)cc1)N1CCCCC1c1ccccc1` (stereo not drawn) [Example 239, 4-[(2-Phenylpiperidin-1-yl)carbonyl]-N-1,3-thiazol-2-yl-benzenesulfonamide], the IC50 is 2970 nM.
As for `O=C(NCc1ccc(C(F)(F)F)cc1)c1ccc(S(=O)(=O)Nc2ncns2)cc1Cl` [Example 377, 2-Chloro-4-[(1,2,4-thiadiazol-5-ylamino)sulfonyl]-N-[4-(trifluoromethyl)benzyl] benzamide], the IC50 was 850 nM.
Consider `O=C(NCc1ccc(F)c(C(F)(F)F)c1)c1ccc(S(=O)(=O)Nc2nccs2)cc1F` [Example 336, 2-Fluoro-N-[4-fluoro-3-(trifluoromethyl)benzyl]-4-[(1,3-thiazol-2-ylamino)sulfonyl] benzamide], for which the IC50 is 240 nM.
Then `O=C(NCc1ccc(Cl)c(F)c1)c1ccc(S(=O)(=O)Nc2ncc(Cl)s2)cc1F` [Example 355, N-(4-chloro-3-fluorobenzyl)-4-{[(5-chloro-1,3-thiazol-2-yl)amino]sulfonyl}-2-fluorobenzamide], with 150 nM; and `CC(NC(=O)c1ccc(S(=O)(=O)Nc2nccs2)cc1)c1ccc(C(F)(F)F)cc1` (stereo not drawn) [Example 118, 4-[(1,3-Thiazol-2-ylamino)sulfonyl]-N-{1-[4-(trifluoromethyl)phenyl]ethyl}benzamide], with 760 nM.
As for `O=C(NCc1ccc(C(F)(F)F)c(F)c1)c1ccc(S(=O)(=O)Nc2ncc(Cl)s2)c(Cl)c1` [Example 366, 3-Chloro-4-{[(5-chloro-1,3-thiazol-2-yl)amino]sulfonyl}-N-[3-fluoro-4-(trifluoromethyl)benzyl] benzamide], the IC50 was 730 nM.
Regarding `CC1(c2ccc(Cl)cc2)CCN(C(=O)c2ccc(S(=O)(=O)Nc3nccs3)cc2)CC1` [Example 195, 4-{[4-(4-Chlorophenyl)-4-methylpiperidin-1-yl]carbonyl}-N-1,3-thiazol-2-yl-benzenesulfonamide], the IC50 is 280 nM.
For the compound `O=C(NCc1cccc(OC(F)(F)F)c1)c1ccc(S(=O)(=O)Nc2ncc(Cl)s2)cc1F` [Example 357, 4-{[(5-Chloro-1,3-thiazol-2-yl)amino]sulfonyl}-2-fluoro-N-[3-(trifluoromethoxy)benzyl]benzamide], the IC50 was 190 nM.
As for `O=C(NCc1ccc(Cl)c(F)c1)c1ccc(S(=O)(=O)Nc2nccs2)c(F)c1` [Example 295, N-(4-chloro-3-fluorobenzyl)-3-fluoro-4-[(1,3-thiazol-2-ylamino)sulfonyl]benzamide], the IC50 is 220 nM.
As for `O=C(NCc1ccc(F)cc1Cl)c1ccc(S(=O)(=O)Nc2nccs2)cc1` [Example 95, N-(2-chloro-4-fluorobenzyl)-4-[(1,3-thiazol-2-ylamino)sulfonyl]benzamide], the IC50 is over 100 nM.
On to `O=C(NCc1ccccc1C(F)(F)F)c1ccc(S(=O)(=O)Nc2nccs2)cc1` [Example 88, 4-[(1,3-Thiazol-2-ylamino)sulfonyl]-N-[2-(trifluoromethyl)benzyl]benzamide], for which the IC50 is over 100 nM.
`O=C(NCc1cc(Cl)ccc1Cl)c1ccc(S(=O)(=O)Nc2nccs2)cc1` [Example 126, N-(2,5-dichlorobenzyl)-4-[(1,3-thiazol-2-ylamino)sulfonyl]benzamide]: the IC50 was 290 nM.
On to `O=C(NCc1ccc(Cl)c(Cl)c1)c1ccc(S(=O)(=O)Nc2ncc(Cl)s2)cc1` [Example 35, 4-{[(5-Chloro-1,3-thiazol-2-yl)amino]sulfonyl}-N-(3,4-dichlorobenzyl)benzamide], for which the IC50 is 40 nM.
`O=C(NCc1ccc(F)c(Cl)c1)c1ccc(S(=O)(=O)Nc2nccs2)c(Cl)c1` [Example 294, 3-Chloro-N-(3-chloro-4-fluorobenzyl)-4-[(1,3-thiazol-2-yl-amino)sulfonyl]benzamide]: the IC50 was 1840 nM.
Then `O=C(Nc1ccn(Cc2ccc(Cl)cc2)n1)c1ccc(S(=O)(=O)Nc2nccs2)cc1` [Example 308, N-[1-(4-chlorobenzyl)-1H-pyrazol-3-yl]-4-[(1,3-thiazol-2-ylamino)sulfonyl]benzamide], with 320 nM.
